The target in test [1] is T1, Neuronal acetylcholine receptor subunit alpha-7 (Homo sapiens, UniProt P36544). As to the kind of experiment: Antagonist activity at human alpha7 nAChR expressed in Xenopus oocyte assessed as inhibition of ACh-induced current at 10 uM after 30 secs by electrophysiological assay. It is filed as functional.
For test [2], the target named is T1, Neuronal acetylcholine receptor subunit alpha-7. Put plainly: Agonist activity at human alpha7 nAChR expressed in Xenopus oocyte assessed as stimulation of ACh-induced current at 10 uM after 30 secs by electrophysiological assay. The format is functional.

The source made the active and inactive calls. The rule behind the calls is not given here.

T1 sequence (P36544 whole entry): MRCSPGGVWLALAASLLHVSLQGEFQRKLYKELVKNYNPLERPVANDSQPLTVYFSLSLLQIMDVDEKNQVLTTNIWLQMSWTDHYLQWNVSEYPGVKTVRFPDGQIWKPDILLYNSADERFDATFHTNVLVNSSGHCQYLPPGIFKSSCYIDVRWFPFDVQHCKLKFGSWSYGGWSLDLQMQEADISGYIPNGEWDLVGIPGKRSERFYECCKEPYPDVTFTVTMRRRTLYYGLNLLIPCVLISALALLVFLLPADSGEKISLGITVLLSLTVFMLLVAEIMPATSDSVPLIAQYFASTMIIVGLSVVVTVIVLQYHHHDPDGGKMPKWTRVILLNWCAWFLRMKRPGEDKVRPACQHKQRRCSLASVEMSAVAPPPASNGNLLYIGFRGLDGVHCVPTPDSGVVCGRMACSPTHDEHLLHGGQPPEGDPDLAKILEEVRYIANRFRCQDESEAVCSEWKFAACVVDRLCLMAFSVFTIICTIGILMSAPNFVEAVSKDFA

Regarding `CN1CC2CCC1C(CNC(=O)c1ccccc1)C2` (racemic; form 1), the inhibition – broadly, the drop in the measured response relative to a control, in per cent – in test [1] is 68%.
Turning to `CC(C)N1CCC[C@@H]1CNC(=O)Oc1ccc(Br)cc1`, the result in test [2] was inactive. For the same compound, the inhibition in test [1] was found to be 27%.
As for `CN(C)CCNC(=O)c1ccc2c(c1)OCCO2`, in test [1], the inhibition is 87%.
As to `CCC#CCN1CCC[C@@H]1CNC(=O)c1ccc(Cl)cc1`, the inhibition in test [1] amounted to 21%.
The same measure, in the same setting: the value for `CN(C)CCNC(=O)c1ccc(Cl)cc1` was 68%; that for `CC(C)N1CCCCN(C(=O)C2COc3ccccc3O2)CC1` (stereo not drawn) was 37%; that for `O=C(Oc1ccc(Br)cc1)N1CCCN2CCC[C@H]2C1` was 62%.
Still for that read-out and setting: next, `C[C@H]1CN2CCCC[C@@H]2CN1C(=O)c1ccc2c(c1)OCCO2`: 75%.
Turning to `CCN1CCC[C@@H]1CNC(=O)c1ccc2ncsc2c1`, in test [2], the result was inactive. The inhibition in test [1] was determined as 53%.
In the same order, the values of `O=C(NC[C@H]1CCCN1C1CCCCC1)c1ccc2ncsc2c1` are “inactive” and 71%.
Take `CCC#CCN1CCC[C@@H]1CNC(=O)C1COc2ccccc2O1` (stereo partly drawn): the inhibition in test [1] is 74%.
As to `O=C(NCC12CCCN1CCC2)c1ccccc1Cl`, in test [1], the inhibition was determined as 35%.
Turning to `CC(C)N1CCCCN(C(=O)c2ccc(Cl)cc2)CC1`, in test [1], the inhibition stood at 35%.
For `O=C(NCC1CC2CCN1CC2)c1ccccc1` (racemic), the inhibition in test [1] was determined as 53%.
On to `O=C(c1ccc(Cl)cc1)N1CCCN2CCC[C@H]2C1`, for which the inhibition in test [1] is 57%.
Consider `O=C(NCC1CC2CCN1CC2)Oc1ccc(Br)cc1` (racemic), for which the inhibition in test [1] was 80%.
Regarding `O=C(NCC12CCCN1CCC2)c1ccc2c(c1)OCCO2`, the inhibition in test [1] turned out to be 33%.
As to `CC(C)N1CCN(C(=O)c2ccc(Cl)cc2)CC1`, the inhibition in test [1] amounted to 84%.
On to `CC(C)N1CCCCN(C(=O)c2ccc3ncsc3c2)CC1`, for which, in test [1], the inhibition was found to be 40%.
Turning to `CC(C)N1CCN(C(=O)C2COc3ccccc3O2)CC1` (stereo not drawn), the inhibition in test [1] amounted to 90%.
Take `O=C(c1ccc(Br)cc1)N1CCCN2CCC[C@@H]2C1`: the outcome in test [2] was inactive. For the same compound, the inhibition in test [1] worked out at 40%.
In the same order, the values of `CC1CCCC1N1CCC(NC(=O)c2ccc3ncsc3c2)CC1` (stereo not drawn) are “inactive” and 65%.
In the same order, the values of `CN1CC2CCC1C(CNC(=O)c1ccc(Cl)cc1)C2` (racemic; form 2) are “inactive” and 61%.
As to `O=C(c1ccc(F)cc1)N1CCCN2CCC[C@@H]2C1`, the result in test [2] was inactive. Moreover, the inhibition in test [1] turned out to be 58%.
As for `CC(C)N1CCCN(C(=O)c2ccc3c(c2)OCCO3)CC1`, the outcome in test [2] was inactive.
With `O=C(NCC1=CC2CCN1CC2)c1ccccc1`, the result in test [2] was inactive. Further, the inhibition in test [1] worked out at 35%.
Turning to `CCC#CCN1CCC[C@@H]1CNC(=O)Oc1ccc(Br)cc1`, the inhibition in test [1] is 72%.
On to `O=C(NCC1=CC2CCN1CC2)c1ccc2c(c1)OCCO2`, for which, in test [2], the result was inactive. Besides, the inhibition in test [1] is 50%.
Take `O=C(NCC12CCCN1CCC2)c1ccc2ncsc2c1`: in test [1], the inhibition worked out at 34%.
On the same count and under the same terms, the value for `CC1CCCC1N1CC[C@H](NC(=O)c2ccc(Cl)cc2)C1` (stereo partly drawn) was 33%.
In the case of `CCN1CCC[C@@H]1CNC(=O)c1ccc(Cl)cc1`, in test [2], the outcome was inactive. Besides, in test [1], the inhibition was determined as 42%.
Turning to `CN1CC2CCC1C(CNC(=O)c1ccc(Br)cc1)C2` (racemic; form 1), the inhibition in test [1] was 71%.
Consider `C[C@H]1CN2CCCC[C@@H]2CN1C(=O)c1ccc2ncsc2c1` (racemic), for which, in test [1], the inhibition is 61%.
For `Cc1ccc(C(=O)NCC23CCCN2CCC3)cc1`, the inhibition in test [1] stood at 25%.
For the compound `CN1CC2CCC1C(CNC(=O)c1ccccc1)C2` (racemic; form 2), the outcome in test [2] was inactive. Also, in test [1], the inhibition was found to be 54%.
As for `O=C(NCC1=CC2CCN1CC2)Oc1ccc(Br)cc1`, in test [2], the outcome was inactive. Also, the inhibition in test [1] was found to be 100%.
For `CN1CC2CCC1C(CNC(=O)c1ccc3c(c1)OCCO3)C2` (racemic; form 2), the result in test [2] was inactive. Moreover, the inhibition in test [1] turned out to be 77%.
`C[C@H]1CN2CCCC[C@@H]2CN1C(=O)c1ccc(Cl)cc1`: the inhibition in test [1] worked out at 65%.
The same measure, in the same setting: the value for `O=C(NCC12CCCN1CCC2)c1cccc(Cl)c1` was 32%.
In the case of `CCC#CCN1CCC[C@H]1COC(=O)c1ccc2ncsc2c1`, in test [2], the outcome was inactive. In addition, the inhibition in test [1] is 60%.
`CC(C)N1CCN(C(=O)Oc2ccc(Br)cc2)CC1`: in test [1], the inhibition is 82%.
Turning to `O=C(NCC1=CC2CCN1CC2)c1ccc(Cl)cc1`, the outcome in test [2] was inactive. Further, the inhibition in test [1] was 50%.
For the compound `CCC#CCN1CCC[C@@H]1CNC(=O)c1ccc2c(c1)OCCO2`, the inhibition in test [1] came out at 96%.
With `O=C(NCC1=CC2CCN1CC2)c1ccc(Br)cc1`, the outcome in test [2] was inactive. Further, the inhibition in test [1] stood at 30%.
For `CCCN1CCC[C@@H]1CNC(=O)c1ccc(F)cc1` the same measures were “inactive” and 22%.
For `CCCC#CCN1CC[C@H](NC(=O)c2ccc3ncsc3c2)C1` the same measures were “inactive” and 81%.
As to `CN(C)CCNC(=O)c1ccc2ncsc2c1`, the inhibition in test [1] stood at 94%.
Consider `CCN1CC[C@H](NC(=O)c2ccc3ncsc3c2)C1`, for which, in test [2], the result was inactive. Also, the inhibition in test [1] worked out at 139%.
As to `O=C(c1ccccc1)N1CCCN2CCC[C@@H]2C1`, in test [2], the result was inactive. For the same compound, the inhibition in test [1] was found to be 55%.
`O=C(C1COc2ccccc2O1)N1CCCN2CCC[C@H]2C1` (stereo partly drawn): the inhibition in test [1] was determined as 54%.
Still for that read-out and setting: the value for `CN(C)CCNC(=O)C1COc2ccccc2O1` (stereo not drawn) was 52%.
With `CC(C)N1CCN(C(=O)c2ccc3c(c2)OCCO3)CC1`, the inhibition in test [1] was 81%.
On to `O=C(c1ccc2c(c1)OCCO2)N1CCCN2CCC[C@@H]2C1`, for which the result in test [2] was inactive. The inhibition in test [1] came to 40%.
Regarding `O=C(NCC1CC2CCN1CC2)c1ccc2c(c1)OCCO2` (racemic), in test [1], the inhibition came out at 79%.
On to `O=C(NCC12CCCN1CCC2)c1ccc(Br)cc1`, for which, in test [1], the inhibition amounted to 9%.
For the compound `CN1CC2CCC1C(CNC(=O)c1ccc(Br)cc1)C2` (racemic; form 2), the outcome in test [2] was inactive. The inhibition in test [1] is 66%.
As for `O=C(N[C@H]1CCN(C2CCCCC2)C1)c1ccc2ncsc2c1`, the result in test [2] was inactive. Also, the inhibition in test [1] came to 56%.
As to `O=C(NCC12CCCN1CCC2)C1COc2ccccc2O1` (stereo not drawn), the inhibition in test [1] is 29%.
On the same count and under the same terms, the value for `CC(C)N1CCN(C(=O)c2ccc3ncsc3c2)CC1` was 85%; that for `CN1CC2CCC1C(CNC(=O)c1ccc(F)cc1)C2` (racemic; form 1) was 52%.
Same read-out and setting: the value for `O=C(c1ccc2c(c1)OCCO2)N1CCCN2CCC[C@H]2C1` was 56%; that for `CN1CC2CCC1C(CNC(=O)c1ccc3c(c1)OCCO3)C2` (racemic; form 1) was 81%; that for `O=C(N[C@@H]1CCN(Cc2ccccc2)C1)c1ccc2ncsc2c1` was 59%.
The same measure, in the same setting: next, `CN1CC2CCC1C(CNC(=O)c1ccc(Cl)cc1)C2` (racemic; form 1): 60%; `O=C(c1ccc2ncsc2c1)N1CCCN2CCC[C@H]2C1`: 53%.
